Biological target: PD-1/PD-L1 interaction (PDL1-6×His protein, PD1-Fc-Avi-Biotin protein) (Homo sapiens, UniProt Q9NZQ7)
Assay: PDL1/PD1 Binding Assay
Settings: Table C; 0.3 nM PDL1, 2.5 nM PD1; read-out: PD-1/PD-L1 PPI IC50
Description: Compounds to be tested were serially diluted in DMSO, and further diluted in assay buffer (25 mM Hepes pH 7.4, 150 mM NaCl, 0.005% Tween 20, BSA 0.01%). Diluted compounds were added to the wells with final concentration of DMSO at 1%. PDL1-6×His protein was added to the wells, mixed well with compound. The plates were incubated for 30 min at room temperature. PD1-Fc-Avi-Biotin protein was added to the wells. […] After a binding time of 30 min at room temperature, Anti-6×His Acceptor beads (final concentration 20 ug/ml) were added to the wells, and the incubation continued for 1 h. Streptavidin Donor beads (final concentration 20 ug/mL) were added at reduced light. The plates were sealed with foil and incubated in the dark for additional 1 h or overnight before reading on an Envision reader. The IC50s were determined by fitting the curves using a four-parameter equation in Graphpad Prism 8.

PD-1/PD-L1 interaction (PDL1-6×His protein, PD1-Fc-Avi-Biotin protein), sequence (Q9NZQ7 19-238 limits assumed): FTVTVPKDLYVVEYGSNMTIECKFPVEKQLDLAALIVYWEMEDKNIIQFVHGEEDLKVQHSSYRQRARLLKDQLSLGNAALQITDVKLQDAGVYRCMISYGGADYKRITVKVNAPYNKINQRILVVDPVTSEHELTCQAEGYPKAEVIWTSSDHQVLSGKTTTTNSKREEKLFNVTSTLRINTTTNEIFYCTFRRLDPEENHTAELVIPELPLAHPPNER

SMILES | IC50 [µM]
O=C(O)CNC1CCc2cc(-c3cccc(-c4cccc(-c5ccc6c(c5)CCC6NCC(=O)O)c4Cl)c3Cl)ccc21 (centres unmarked) [Compound A-1] | ≤ 0.01
CC(=O)NCCNC1CCc2cc(-c3cccc(-c4cccc(-c5ccc6c(c5)CCC6NCCNC(C)=O)c4Cl)c3Cl)ccc21 (centres unmarked) [Compound A-3] | 0.01 to 0.1
CC(=O)NCCNC1Cc2ccc(-c3cccc(-c4cccc(-c5ccc6c(c5)CC(NCCNC(C)=O)C6)c4Cl)c3Cl)cc2C1 (centres unmarked) [Compound A-4] | 0.01 to 0.1
O=C(O)CNC1Cc2ccc(-c3cccc(-c4cccc(-c5ccc6c(c5)CC(NCC(=O)O)C6)c4Cl)c3Cl)cc2C1 (centres unmarked) [Compound A-5] | ≤ 0.01
O=C1CC[C@@H](CNC2Cc3ccc(-c4cccc(-c5cccc(-c6ccc7c(c6)CC(NC[C@@H]6CCC(=O)N6)C7)c5Cl)c4Cl)cc3C2)N1 (some centres unmarked) [Compound A-6] | ≤ 0.01
O=C1CC[C@@H](CNC2Cc3ccc(-c4cccc(-c5cccc(-c6ccc7c(c6)CC(O)C7)c5Cl)c4Cl)cc3C2)N1 (some centres unmarked) [Compound A-7] | 0.1 to 1
Clc1c(-c2ccc3c(c2)CC(N2CCOCC2)C3)cccc1-c1cccc(-c2ccc3c(c2)CC(N2CCOCC2)C3)c1Cl (centres unmarked) [Compound A-8] | 0.1 to 1
Clc1c(-c2ccc3c(c2)CCNC3)cccc1-c1cccc(-c2ccc3c(c2)CCNC3)c1Cl [Compound B-1] | ≤ 0.01
Clc1c(-c2ccc3c(c2)CNC3)cccc1-c1cccc(-c2ccc3c(c2)CNC3)c1Cl [Compound B-2] | 0.01 to 0.1
Clc1c(-c2ccc3c(n2)CCNC3)cccc1-c1cccc(-c2ccc3c(n2)CCNC3)c1Cl [Compound B-3] | 0.01 to 0.1
Clc1c(-c2cc3c(cn2)CNCC3)cccc1-c1cccc(-c2cc3c(cn2)CNCC3)c1Cl [Compound B-4] | 0.01 to 0.1

Results, then the molecule that gave them:

IC50 [µM] | SMILES
0.1 to 1 | Clc1c(-c2ccc3c(n2)OCCNC3)cccc1-c1cccc(-c2ccc3c(n2)OCCNC3)c1Cl [Compound B-5]
0.1 to 1 | N[C@H]1CCc2cc(-c3cccc(-c4cccc(-c5ccc6c(c5)CC[C@@H]6N)c4Cl)c3Cl)ccc21 [Compound B-7]
0.1 to 1 | N[C@@H]1CCc2cc(-c3cccc(-c4cccc(-c5ccc6c(c5)CC[C@H]6N)c4Cl)c3Cl)ccc21 [Compound B-8]
1 to 10 | CC1(C)CNCc2ccc(-c3cccc(-c4cccc(-c5ccc6c(c5)C(C)(C)CNC6)c4Cl)c3Cl)cc21 [Compound B-9]
0.01 to 0.1 | Fc1cc(-c2cccc(-c3cccc(-c4cc(F)c5c(c4)CCNC5)c3Cl)c2Cl)cc2c1CNCC2 [Compound B-10]
1 to 10 | Clc1c(-c2ccc3c(c2)COC32CNC2)cccc1-c1cccc(-c2ccc3c(c2)COC32CNC2)c1Cl [Compound B-12]
0.01 to 0.1 | CC1Cc2cc(-c3cccc(-c4cccc(-c5ccc6c(c5)CC(C)NC6)c4Cl)c3Cl)ccc2CN1 (centres unmarked) [Compound B-13]
0.1 to 1 | Cc1c(-c2cccc(-c3cccc(-c4ccc5c(c4C)CCNC5)c3Cl)c2Cl)ccc2c1CCNC2 [Compound B-14]
1 to 10 | Cc1c(-c2cccc(-c3cccc(-c4ccc5c(c4C)CNCC5)c3Cl)c2Cl)ccc2c1CNCC2 [Compound B-15]
0.1 to 1 | Cc1cc2c(cc1-c1cccc(-c3cccc(-c4cc5c(cc4C)CNCC5)c3Cl)c1Cl)CCNC2 [Compound B-16]
0.01 to 0.1 | COc1cc(-c2cccc(-c3cccc(-c4cc5c(c(OC)c4)CNCC5)c3Cl)c2Cl)cc2c1CNCC2 [Compound B-17]
≤ 0.01 | O=C(O)C[C@H](O)CN1Cc2ccc(-c3cccc(-c4cccc(-c5ccc6c(c5)CN(C[C@@H](O)CC(=O)O)C6)c4Cl)c3Cl)cc2C1 [Compound C-1]
≤ 0.01 | O=C(O)C[C@H](O)CN1CCc2cc(-c3cccc(-c4cccc(-c5ccc6c(c5)CCN(C[C@@H](O)CC(=O)O)C6)c4Cl)c3Cl)ccc2C1 [Compound C-2]
0.1 to 1 | O=C(O)C[C@H](O)CN1CCc2nc(-c3cccc(-c4cccc(-c5ccc6c(n5)CCN(C[C@@H](O)CC(=O)O)C6)c4Cl)c3Cl)ccc2C1 [Compound C-3]
0.01 to 0.1 | O=C(O)C[C@H](O)CN1CCc2cc(-c3cccc(-c4cccc(-c5cc6c(cn5)CN(C[C@@H](O)CC(=O)O)CC6)c4Cl)c3Cl)ncc2C1 [Compound C-4]

Reference: US11760764B2, “Methods and compositions for targeting PD-L1” (Aligos Therapeutics, Inc., priority 2020, dated 2023)
